# US9730914B2, “3,5-diaminopyrazole kinase inhibitors” (Axikin Pharmaceuticals, Inc., priority 2014, dated 2017)
# Columns and labels:
# [1] = target: T1, kinase domain protein of RC kinase (RCK) (Homo sapiens, UniProt Q56UN5); test: Kinase competition binding assay (Kd, qPCR readout), RC kinase; settings: Kd class, read-out: RCK Activity Level
# T1 construct: made in house; host or cells: E. coli BL21-derived host (T7 phage) or HEK-293
# T1 sequence (Q56UN5 1061-1324 limits assumed): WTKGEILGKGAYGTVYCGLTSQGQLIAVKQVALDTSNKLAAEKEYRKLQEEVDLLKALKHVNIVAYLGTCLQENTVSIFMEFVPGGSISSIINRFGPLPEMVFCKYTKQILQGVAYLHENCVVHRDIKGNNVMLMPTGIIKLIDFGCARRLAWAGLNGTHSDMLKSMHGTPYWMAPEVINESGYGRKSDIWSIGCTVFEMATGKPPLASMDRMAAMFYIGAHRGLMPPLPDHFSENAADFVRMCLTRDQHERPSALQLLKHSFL
# How it was run: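 Competition binding: DNA-tagged kinase (T7 phage or HEK-293-expressed) plus immobilized biotinylated ligand beads and compound, 1 h at room temperature, 1% DMSO. Bead-bound kinase eluted and quantified by qPCR. Kd from 11-point 3-fold dilution, top 30,000 nM, retested lower if below 0.5 nM.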
# JAK2 = target: T2, JAK2 (Homo sapiens, UniProt O60674); test: Kinase competition binding assay (Kd, qPCR readout), JAK2
# T2 construct: made in house; host or cells: E. coli BL21-derived host (T7 phage) or HEK-293
# How it was run: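 Competition binding: DNA-tagged kinase (T7 phage or HEK-293-expressed), immobilized biotinylated ligand beads and compound in SeaBlock/PBS/Tween/DTT buffer, 1 hour at room temperature; bound kinase eluted and quantified by qPCR. Kd from 11-point 3-fold dilution, top 30,000 nM typically, final DMSO 1%.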
# JAK3 = target: T3, JAK3 (Homo sapiens, UniProt P52333); test: Kinase competition binding assay (Kd, qPCR readout), JAK3
# T3 construct: made in house; host or cells: E. coli BL21-derived host (T7 phage) or HEK-293
# How it was run: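 Competition binding in which kinase, either T7 phage-tagged or HEK-293-expressed and DNA-tagged, was exposed to immobilized biotinylated ligand and test compound for 1 h at room temperature. Bead-bound kinase was eluted and quantified by qPCR. Kd came from 11-point 3-fold dilutions, top concentration 30,000 nM and 1% DMSO, repeated lower if below 0.5 nM.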
# T3 sequence (P52333 811-1124 limits assumed): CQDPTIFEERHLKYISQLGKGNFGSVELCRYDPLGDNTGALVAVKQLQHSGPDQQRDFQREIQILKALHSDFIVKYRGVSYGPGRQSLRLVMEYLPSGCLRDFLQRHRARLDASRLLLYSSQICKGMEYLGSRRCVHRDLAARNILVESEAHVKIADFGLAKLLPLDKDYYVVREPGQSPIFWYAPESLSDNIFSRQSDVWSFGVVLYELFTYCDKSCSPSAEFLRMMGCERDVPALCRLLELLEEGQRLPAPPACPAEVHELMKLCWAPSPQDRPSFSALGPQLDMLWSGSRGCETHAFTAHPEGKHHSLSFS
# T2 sequence (O60674 840-1132 limits assumed): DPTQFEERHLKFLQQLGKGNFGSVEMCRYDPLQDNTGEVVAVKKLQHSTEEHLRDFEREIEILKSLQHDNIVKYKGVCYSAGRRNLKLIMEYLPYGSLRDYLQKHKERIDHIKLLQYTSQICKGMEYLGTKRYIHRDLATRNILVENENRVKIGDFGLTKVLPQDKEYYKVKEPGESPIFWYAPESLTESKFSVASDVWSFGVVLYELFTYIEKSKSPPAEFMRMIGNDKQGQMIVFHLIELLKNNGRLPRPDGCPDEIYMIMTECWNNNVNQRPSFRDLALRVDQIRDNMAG
structure (smiles),measurement,setting,value
"Cc1cc(CNc2[nH]nc(Nc3ccc(-n4cccc4)cc3)c2C(N)=O)cc(C)c1O [Compound 6, 3-((4-(1H-pyrrol-1-yl)phenyl)amino)-5-((4-hydroxy-3,5-dimethylbenzyl)amino)-1H-pyrazole-4-carboxamide]",Kd,[1],< 0.05 µM
same,Kd,"JAK2; Kd class, JAK2, read-out: JAK2 Activity Level",> 1 µM
same,RCK:JAK2 selectivity ratio,JAK2; ratio Kd (JAK2): Kd(RCK),A (A represents Kd (JAK2): Kd (RCK)>100)
same,Kd,"JAK3; Kd class, JAK3, read-out: JAK3 Activity Level",> 1 µM
same,RCK:JAK3 selectivity ratio,JAK3; ratio Kd (JAK3): Kd (RCK),A (A represents Kd (JAK3): Kd (RCK)>100)
